One data set concerns the target T1, human EAAT3 (Homo sapiens, UniProt P43005).
T1 construct: expressed in transfected cells; host or cells: HEK-293
T1 sequence (P43005 1-524): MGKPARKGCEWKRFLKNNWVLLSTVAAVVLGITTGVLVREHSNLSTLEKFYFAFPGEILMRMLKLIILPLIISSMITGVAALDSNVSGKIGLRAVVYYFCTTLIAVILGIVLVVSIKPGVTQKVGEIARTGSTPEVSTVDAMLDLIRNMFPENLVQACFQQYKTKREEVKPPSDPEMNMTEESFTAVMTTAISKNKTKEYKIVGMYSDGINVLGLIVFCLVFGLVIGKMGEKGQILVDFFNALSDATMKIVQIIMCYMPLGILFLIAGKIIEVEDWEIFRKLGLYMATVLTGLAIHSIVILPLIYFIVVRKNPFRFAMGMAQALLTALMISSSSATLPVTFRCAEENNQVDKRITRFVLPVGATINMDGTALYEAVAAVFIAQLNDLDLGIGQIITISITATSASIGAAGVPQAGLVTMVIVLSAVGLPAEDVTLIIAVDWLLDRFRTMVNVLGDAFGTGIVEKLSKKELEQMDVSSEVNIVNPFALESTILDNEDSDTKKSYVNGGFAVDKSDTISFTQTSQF
Kind of data set: FLIPR Membrane Potential (FMP) assay, antagonist potency at human EAAT3. It counts as cell-based. As to conditions: HEK-293 cells stably expressing human EAAT3; L-glutamate as agonist at EC80; antagonists applied 15 min before; Kb by Cheng-Prusoff from IC50. As to the method:
The FLIPR Membrane Potential (FMP) Assay
HEK-293 cells stably expressing human EAAT3 were seeded at 55 000 cells/well in growth medium (DMEM glutamate free (Invitrogen 11960-044), 1% Pen Strep (10 ml/1 GIBCO BRL N^o 15140-023), 10% FCS non dialysed heat inactivated, 5 mg/l puromycin) in poly-D-lysine treated 96-well black microtiter plates with clear-bottom. After 24 h, the growth medium was removed and […] of Krebs buffer (140 mM NaCl, 4.7 mM KCl, 2.5 mM CaCl2, 1.2 mM MgCl2, 11 mM HEPES, 10 mM D-glucose, pH=7.4) added. The cells were then loaded by adding 100 μl/well FMP assay dye (FLIPR Membrane Potential assay reagent, Molecular Devices). The 96-well plates were then incubated at 37° C. for 1 h. The depolarization of the cells will cause more dye to enter in the cells, where it will bind to intracellular proteins and lipids and cause an increase in the fluorescence signal. Antagonist potency at human EAAT3 was determined by using L-glutamate as agonist at a concentration which gives 80% of the maximum response. The antagonists were applied 15 min before the application of the agonist L-glutamate. The assays were performed at room temperature and measurements done by using a Fluorometric Imaging Plate Reader (FLIPR, Molecular Devices) and filter #2. Responses were measured as peak increase in fluorescence minus basal (i.e. fluorescence without addition of L-glutamate). Kb was determined using the Cheng-Prusoff equation Kb=IC50/[1+(A/EC50)], where IC50 is the concentration of the antagonist producing 50% inhibition, A is the concentration of the agonist against which the IC50 is being determined (at EC80) and EC50 is the concentration of the agonist producing 50% […].

`Cc1ccc(-c2cc(C(=O)NC(C)(C)C)cc(-c3cncnc3C(C)C)c2)cc1F` [Example 30, N-tert-Butyl-3-(3-fluoro-4-methylphenyl)-5-(4-propan-2-ylpyrimidin-5-yl)-benzamide] registered a melting point of 90 °C. This compound also showed a Kb on human EAAT3 of 770 nM.
The like results for `Cc1ncccc1-c1cc(C(=O)NC(C)(C)C)cc(-c2ccc(F)cc2)c1` [Example 24, N-tert-Butyl-3-(4-fluorophenyl)-5-(2-methylpyridin-3-yl)-benzamide] were, in that order, 78 °C and 170 nM.
`CC(C)(C)NC(=O)c1cc(-c2ccc(Cl)cc2)cc(-c2cncnc2)c1` [Example 10, N-tert-Butyl-3-(4-chlorophenyl)-5-pyrimidin-5-ylbenzamide] had a melting point of 195 °C. This compound also came in with a Kb at human EAAT3 of 270 nM.
Consider `CC(C)c1ncncc1-c1cc(C(=O)NC(C)(C)C)cc(-c2ccc(C(F)(F)F)cc2)c1` [Example 28, N-tert-Butyl-3-(4-propan-2-ylpyrimidin-5-yl)-5-[4-(trifluoromethyl)-phenyl]-benzamide], for which the melting point amounted to 168 °C. Also, at human EAAT3, the Kb came out at 310 nM.
`CC(C)c1ncncc1-c1cc(C(=O)NC(C)(C)C)cc(-c2ccc(F)c(F)c2)c1` [Example 26, N-tert-Butyl-3-(3,4-difluorophenyl)-5-(4-propan-2-ylpyrimidin-5-yl)-benzamide] showed a melting point of 80 °C. The same compound gave a Kb on human EAAT3 of 100 nM.
`CC(C)c1ncncc1-c1cc(C(=O)NC(C)(C)C)cc(-c2ccc(Cl)c(F)c2)c1` [Example 31, N-tert-Butyl-3-(4-chloro-3-fluorophenyl)-5-(4-propan-2-ylpyrimidin-5-yl)-benzamide] came in with a melting point of 93 °C. In addition, the Kb on human EAAT3 turned out to be 320 nM.
The like results for `CC(C)c1ncncc1-c1cc(C(=O)NC(C)(C)C)cc(-c2ccc(Cl)cc2)c1` [Example 11, N-tert-Butyl-3-(4-chlorophenyl)-5-(4-propan-2-ylpyrimidin-5-yl)-benzamide] were, in that order, 182 °C and 230 nM.
For `CC(C)c1ncncc1-c1cc(C(=O)NC(C)(C)C)cc(-c2ccc(C#N)cc2)c1` [Example 32, N-tert-Butyl-3-(4-cyanophenyl)-5-(4-propan-2-ylpyrimidin-5-yl)-benzamide], the melting point was 98 °C. At human EAAT3, the Kb came out at 570 nM.
Compound `Cc1cc(-c2cc(C(=O)NC(C)(C)C#N)cc(-c3cncnc3C(C)C)c2)ccc1F` [Example 35, N-(2-Cyanopropan-2-yl)-3-(4-fluoro-3-methylphenyl)-5-(4-propan-2-yl-pyrimidin-5-yl)-benzamide] returned a melting point of 101 °C. On human EAAT3, the Kb was determined as 350 nM.
In turn, `CC(C)c1ncncc1-c1cc(C(=O)NC(C)(C)C#N)cc(-c2ccc(F)cc2)c1` [Example 36, N-(2-Cyanopropan-2-yl)-3-(4-fluorophenyl)-5-(4-propan-2-yl-pyrimidin-5-yl)-benzamide] returned a melting point of 97 °C. On human EAAT3, this compound displayed a Kb of 270 nM.
`CC(C)c1ncncc1-c1cc(C(=O)NC(C)(C)C2CC2)cc(-c2ccc(F)cc2)c1` [Example 22, N-(2-Cyclopropylpropan-2-yl)-3-(4-fluorophenyl)-5-(4-propan-2-ylpyrimidin-5-yl)-benzamide] returned a melting point of 74 °C. The same compound gave a Kb on human EAAT3 of 57 nM.
`Cc1ccc(-c2cc(C(=O)NC(C)(C)C#N)cc(-c3cncnc3C(C)C)c2)cc1F` [Example 34, N-(2-Cyanopropan-2-yl)-3-(3-fluoro-4-methylphenyl)-5-(4-propan-2-yl-pyrimidin-5-yl)-benzamide] registered a melting point of 102.5 °C. Moreover, the Kb on human EAAT3 stood at 400 nM.
With `CC(C)c1ncncc1-c1cc(C(=O)NC(C)(C)C)cc(-c2ccc(C3CC3)cc2)c1` [Example 27, N-tert-Butyl-3-(4-cyclopropylphenyl)-5-(4-propan-2-ylpyrimidin-5-yl)-benzamide], the melting point came to 91.5 °C. The same compound yielded a Kb on human EAAT3 of 180 nM.
As to `CC(C)(C)NC(=O)c1cc(-c2ccc(Cl)cc2)cc(-c2cccnc2)c1` [Example 8, N-tert-Butyl-3-(4-chlorophenyl)-5-pyridin-3-ylbenzamide], the melting point worked out at 177 °C. The compound further registered a Kb at human EAAT3 of 350 nM.
The corresponding values for `CC(C)c1ncncc1-c1cc(C(=O)NC(C)(C)C#N)cc(-c2ccc(Cl)cc2)c1` [Example 38, 3-(4-Chlorophenyl)-N-(2-cyanopropan-2-yl)-5-(4-propan-2-yl-pyrimidin-5-yl)-benzamide] are 97 °C and 160 nM.
The like results for `Cc1cc(-c2cc(C(=O)NC(C)(C)C)cc(-c3cncnc3C(C)C)c2)ccc1F` [Example 29, N-tert-Butyl-3-(4-fluoro-3-methylphenyl)-5-(4-propan-2-ylpyrimidin-5-yl)-benzamide] were, in that order, 83 °C and 720 nM.
The like results for `CC(C)c1ccncc1-c1cc(C(=O)NC(C)(C)C)cc(-c2ccc(Cl)cc2)c1` [Example 9, N-tert-Butyl-3-(4-chlorophenyl)-5-(4-propan-2-ylpyridin-3-yl)-benzamide] were, in that order, 148 °C and 540 nM.
For the compound `CC(C)(C)NC(=O)c1cc(-c2ccc(Cl)cc2)cc(-c2cncnc2C2CC2)c1` [Example 39, N-tert-Butyl-3-(4-chlorophenyl)-5-(4-cyclopropyl-pyrimidin-5-yl)-benzamide], the melting point is 96 °C. In addition, the Kb on human EAAT3 is 270 nM.
The corresponding values for `COc1ccc(-c2cc(C(=O)NC(C)(C)C)cc(-c3cncnc3C(C)C)c2)cc1` [Example 33, N-tert-Butyl-3-(4-methoxyphenyl)-5-(4-propan-2-ylpyrimidin-5-yl)-benzamide] are 84 °C and 540 nM.
Consider `Cc1ccc(-c2cc(C(=O)NC(C)(C)C)cc(-c3cncnc3C(C)C)c2)cc1` [Example 25, N-tert-Butyl-3-(4-methylphenyl)-5-(4-propan-2-ylpyrimidin-5-yl)-benzamide], for which the melting point came to 91 °C. This compound showed a Kb on human EAAT3 of 250 nM.

By melting point is commonly meant the temperature of the solid-liquid transition. One may read the Kb as the equilibrium dissociation constant of an antagonist, usually derived from a functional assay. The low end stands for a more potent antagonist, the high end for a less potent antagonist.
